Experimental data reported in patent publication US20260199564A1, “METHOD OF PREVENTING BLOOD COAGULATION AND DRUG-ELUTING IMPLANT FOR PERCUTANEOUS CORONARY INTERVENTION” (priority 2023, published 2026).
pIC50: −log10 of the molar value.

Columns and labels:
hERG channel = target: T1, hERG channel (Homo sapiens, UniProt Q12809); experiment: Predictor hERG fluorescence polarization (FP) binding assay
T1 construct: purchased
Protocol: • a. Primary stock solutions of 3 mM CK and astemizole in 100% DMSO were diluted in 3-fold serial dilutions in the same solvent to obtain 16 different concentrations ranging from 3 mM to […]. These solutions were further diluted 25-fold with FP (fluorescence polarization) assay buffer and then transferred to the assay plate. • b. Each test solution in the assay plate was further diluted 4-fold with FP assay buffer. Predictor™ hERG membrane preparations were thawed at room temperature and sonicated. Predictor™ hERG Tracer Red (250 nM) was diluted to 4 nM with hERG FP assay buffer. All experiments were performed in FP assay buffer containing […].
• a. The FP assay was carried out using Predictor™ hERG Fluorescence Polarization Assay Kit. The binding assay was conducted following the manufacturer's recommended protocol with some modifications. Aliquots (5 μL) of each concentration of test article of reference were pipetted into the appropriate wells of a black 384-well micro-plate containing 10 μL of hERG membrane and 5 μL of 4 nM fluorescent tracer and covered with plate lid to protect the reagents exposed to from light. • b. The experiments were performed using triplicate wells for each concentration. Following a 3-hour incubation at room temperature, the microplates were read on a Tecan Infinite® F200 plate reader using polarized excitation filter setting at 535 nm and emission filter setting at 590 nm (25 and 20 nm bandwidths, respectively). Assay robustness was assessed by measuring 16 replicates positive control wells (containing 30 μM E-4031, known hERG channel blocker, in FP assay mixture) and negative control wells (no hERG channel blocker in FP assay mixture).
• a. To evaluate the robustness of the hERG assays, the signal-to-noise ratio was quantified by calculating Z′-factor for each assay. In statistics, the Z′-factor provides a way to evaluate the quality of the assay. […]. Z′-factor values were determined using the blank subtracted polarization values from 16 wells of • negative and positive controls using the formula of Zhang et al. […]

CYP1A2 = target: T2, CYP1A2 (Homo sapiens, UniProt P05177); experiment: Cytochrome P450 inhibition in human liver microsomes using LC-MS/MS, CYP1A2; format: in vitro ADME
T2 construct: with pooled human liver microsomes; from tissue; host or cells: pooled human liver microsomes
T2 sequence (P05177 1-516): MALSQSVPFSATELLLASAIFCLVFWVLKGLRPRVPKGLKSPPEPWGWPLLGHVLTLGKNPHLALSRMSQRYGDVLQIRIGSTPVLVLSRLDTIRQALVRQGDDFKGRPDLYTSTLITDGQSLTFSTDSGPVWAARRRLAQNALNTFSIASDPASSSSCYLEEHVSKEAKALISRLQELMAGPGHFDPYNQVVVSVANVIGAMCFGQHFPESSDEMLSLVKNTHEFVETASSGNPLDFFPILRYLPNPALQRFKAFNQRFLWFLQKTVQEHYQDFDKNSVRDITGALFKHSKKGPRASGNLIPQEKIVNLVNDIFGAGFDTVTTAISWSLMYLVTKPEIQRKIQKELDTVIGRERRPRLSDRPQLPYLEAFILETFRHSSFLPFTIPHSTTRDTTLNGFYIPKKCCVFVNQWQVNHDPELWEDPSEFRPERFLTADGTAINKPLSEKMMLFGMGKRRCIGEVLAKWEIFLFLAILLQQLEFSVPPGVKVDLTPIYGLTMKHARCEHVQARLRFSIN
Protocol: (§1) In IC50 shift experiments, CK (0.2 μL prepared in DMSO) was pre-incubated for 30 min at 37° C., at 8 different concentrations, with pooled human liver microsomes (0.1-1 mg/mL, depending on which enzyme was assessed) in the absence or presence of 1 mM NADPH in 100 μL of potassium phosphate buffer (100 mM, pH 7.4) and MgCl2 (2.5 mM). After the pre-incubation, a substrate mixture containing a probe substrate in 100 μL of potassium phosphate buffer (100 mM, pH 7.4), MgCl2 (2.5 mM), and NADPH (1 mM) was added for measurement of the corresponding P450 activities. Incubations were terminated by addition of 200 μL methanol. Samples were then extracted and centrifuged and the supernatant was subjected to validated LC-MS/MS analysis.

CYP2C9 = target: T3, CYP2C9 (Homo sapiens, UniProt P11712); experiment: Cytochrome P450 inhibition in human liver microsomes using LC-MS/MS, CYP2C9; format: in vitro ADME
T3 construct: with pooled human liver microsomes; from tissue; host or cells: pooled human liver microsomes
T3 sequence (P11712 whole entry): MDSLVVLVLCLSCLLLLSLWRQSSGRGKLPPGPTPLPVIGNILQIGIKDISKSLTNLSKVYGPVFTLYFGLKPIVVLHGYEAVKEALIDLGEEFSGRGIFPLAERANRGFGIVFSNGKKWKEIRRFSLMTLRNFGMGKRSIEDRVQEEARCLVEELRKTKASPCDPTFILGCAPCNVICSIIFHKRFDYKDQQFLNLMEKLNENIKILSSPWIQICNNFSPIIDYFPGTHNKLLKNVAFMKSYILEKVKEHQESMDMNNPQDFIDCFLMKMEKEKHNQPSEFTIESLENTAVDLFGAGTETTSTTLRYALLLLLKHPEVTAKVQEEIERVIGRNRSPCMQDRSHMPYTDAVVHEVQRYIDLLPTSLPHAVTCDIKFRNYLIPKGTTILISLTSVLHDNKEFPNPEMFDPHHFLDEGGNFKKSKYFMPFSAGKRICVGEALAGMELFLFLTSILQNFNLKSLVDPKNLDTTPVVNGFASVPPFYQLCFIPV
Protocol: as §1

TNF-α = experiment: LPS-induced TNF-α expression in HUVECs; format: cell-based, human; settings: 1, 3, 10 μM for 1 h prior to LPS (1 μg/ml) stimulation for 24 h
Protocol: (§2) HUVECs were treated for 1 h with ginsenoside CK (1 μM, 3 μM, and 10 μM) prior to LPS (1 μg/ml) stimulation for 24 h (A) IL-6 (B) TNF-αexpression. Values are means±SEM of 3 independent experiments. Statistical significance assessed by one-way ANOVA followed by Scheffe post-hoc test for multiple comparisons (***P<0.01, *P<0.05 vs LPS).
(§3) Treatment of HUVECs with LPS (1 μg/ml) increased IL-6 and TNF-αexpression. To determine whether LPS-induced IL-6 and TNF-αexpression was affected by ginsenoside CK, HUVECs were treated for 1 h with ginsenoside CK (1 μM, 3 μM, and 10 μM) prior to LPS (1 μg/ml) stimulation for 24 h.

IL-6 = experiment: LPS-induced IL-6 expression in HUVECs; format: cell-based, human; settings: 1, 3, 10 μM for 1 h prior to LPS (1 μg/ml) stimulation for 24 h
Protocol: as §2, §3

CYP2D6 = target: T4, CYP2D6 (Homo sapiens, UniProt P10635); experiment: Cytochrome P450 inhibition in human liver microsomes using LC-MS/MS, CYP2D6; format: in vitro ADME
T4 construct: with pooled human liver microsomes; from tissue; host or cells: pooled human liver microsomes
T4 sequence (P10635 whole entry): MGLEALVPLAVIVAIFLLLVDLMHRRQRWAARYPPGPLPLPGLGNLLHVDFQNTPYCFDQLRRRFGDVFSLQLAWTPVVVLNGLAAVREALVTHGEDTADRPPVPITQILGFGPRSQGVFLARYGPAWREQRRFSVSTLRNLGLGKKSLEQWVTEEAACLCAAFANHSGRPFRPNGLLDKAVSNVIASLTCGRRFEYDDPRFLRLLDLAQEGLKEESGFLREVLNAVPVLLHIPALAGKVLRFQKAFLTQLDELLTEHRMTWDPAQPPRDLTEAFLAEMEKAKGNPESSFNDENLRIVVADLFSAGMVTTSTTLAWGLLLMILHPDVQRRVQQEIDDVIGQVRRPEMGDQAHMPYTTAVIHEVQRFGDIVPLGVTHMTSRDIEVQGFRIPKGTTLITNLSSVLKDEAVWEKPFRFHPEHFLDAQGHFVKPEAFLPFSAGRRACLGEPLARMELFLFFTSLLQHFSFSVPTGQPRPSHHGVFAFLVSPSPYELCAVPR
Protocol: as §1

[1] = 50 μM, 30 min pre-incubation in the presence or absence of NADPH

T1 sequence (Q12809 whole entry): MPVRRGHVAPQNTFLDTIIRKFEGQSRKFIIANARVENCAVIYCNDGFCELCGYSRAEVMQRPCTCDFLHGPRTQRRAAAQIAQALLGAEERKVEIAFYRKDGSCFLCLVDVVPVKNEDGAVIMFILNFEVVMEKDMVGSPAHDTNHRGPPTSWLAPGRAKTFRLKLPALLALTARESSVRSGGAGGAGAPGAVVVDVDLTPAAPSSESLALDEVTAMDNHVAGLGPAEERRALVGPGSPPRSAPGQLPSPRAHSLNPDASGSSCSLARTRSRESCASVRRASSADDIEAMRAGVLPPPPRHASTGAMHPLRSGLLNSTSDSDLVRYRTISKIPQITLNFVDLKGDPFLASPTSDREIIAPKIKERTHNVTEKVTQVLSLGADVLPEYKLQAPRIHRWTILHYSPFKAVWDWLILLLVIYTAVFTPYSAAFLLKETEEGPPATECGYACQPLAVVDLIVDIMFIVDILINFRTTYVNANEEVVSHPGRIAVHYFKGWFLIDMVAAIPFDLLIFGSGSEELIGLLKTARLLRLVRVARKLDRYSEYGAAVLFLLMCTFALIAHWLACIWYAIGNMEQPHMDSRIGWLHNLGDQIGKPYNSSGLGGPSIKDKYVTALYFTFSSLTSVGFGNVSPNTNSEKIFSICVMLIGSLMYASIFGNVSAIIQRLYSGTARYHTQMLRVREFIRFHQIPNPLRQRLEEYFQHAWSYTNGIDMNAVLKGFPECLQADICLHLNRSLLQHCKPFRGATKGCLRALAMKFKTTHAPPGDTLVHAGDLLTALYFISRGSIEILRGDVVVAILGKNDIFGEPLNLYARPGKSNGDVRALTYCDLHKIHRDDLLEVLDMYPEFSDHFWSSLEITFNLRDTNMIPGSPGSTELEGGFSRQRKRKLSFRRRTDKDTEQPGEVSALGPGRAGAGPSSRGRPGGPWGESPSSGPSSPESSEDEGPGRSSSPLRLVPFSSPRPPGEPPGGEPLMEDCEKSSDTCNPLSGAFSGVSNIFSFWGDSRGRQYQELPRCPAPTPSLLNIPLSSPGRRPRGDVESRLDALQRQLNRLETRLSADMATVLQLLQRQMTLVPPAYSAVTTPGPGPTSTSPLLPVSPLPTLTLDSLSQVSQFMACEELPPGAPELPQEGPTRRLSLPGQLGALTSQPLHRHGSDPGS

Compound: CC(C)=CCC[C@](C)(O[C@@H]1O[C@H](CO)[C@@H](O)[C@H](O)[C@H]1O)[C@H]1CC[C@]2(C)[C@@H]1[C@H](O)C[C@@H]1[C@@]3(C)CC[C@H](O)C(C)(C)[C@@H]3CC[C@]12C [CK, Ginsenoside compound K]
- blocking effect for binding of tracer to the hERG membrane protein (hERG channel; at 30 μM, triplicate measurements): minor blocking effect
- risk classification of potency for hERG blocker (hERG channel; classified from IC50): weak ligand
- pIC50 (hERG channel; hERG FP assay, triplicate measurements): < 4.52
- inhibition at concentration of 50 μM (CYP1A2; [1]): did not inhibit
- pIC50 (CYP1A2; pooled human liver microsomes, substrate Phenacetin): < 4.30
- inhibition at concentration of 50 μM (CYP2C9; [1]): did not inhibit
- pIC50 (CYP2C9; pooled human liver microsomes, substrate Diclofenac): < 4.30
- LPS-induced TNF-α expression (TNF-α): significantly decreased
- LPS-induced IL-6 expression (IL-6): significantly decreased
- inhibition at concentration of 50 μM (CYP2D6; [1]): did not inhibit
- pIC50 (CYP2D6; pooled human liver microsomes, substrate Dextromethorphan): < 4.30
